Values quoted from earlier work, collected in patent publication US20100160366A1, “TREATMENT METHOD” (Schering Corporation, priority 2000, published 2010).

Columns and labels:
allergic immune cells = allergic immune cells in vitro

Compound: CCOC(=O)N1CCC(=C2c3ccc(Cl)cc3CCc3cccnc32)CC1 [loratadine]
- adhesion molecule ICAM-1 expression (ICAM-1): reduced
- inflammatory cytokine IL-6 (IL-6): inhibited
- activity of eosinophils (eosinophils): inhibited
- chemotaxis of eosinophils (eosinophils): inhibited
- release of mast cell histamine (allergic immune cells): inhibit
- release of the cysteinyl leukotriene LTC4 (allergic immune cells): inhibit
- activation of monocytes as measured by superoxide anion production (monocytes): reduced
